The values below come from patent US9321776B2, “Isochromene derivatives as phoshoinositide 3-kinases inhibitors” (CHIESI FARMACEUTICI S.p.A., priority 2013, dated 2016).

Structures can show the parent of a compound that is named as a salt.

Common to all, as to assay: PI3K enzyme inhibitory activity in the cell free assay (ADP-Glo Kinase Assay)
Common to all, as to format: biochemical
On the technique in general: ADP-Glo turns the ADP formed in a reaction into a luminescent signal.

Assay [1] addresses T1, PI3Kα (Homo sapiens, UniProt P42336).
T1 construct: purchased Millipore Ltd (Billerica, Mass.)
Conditions: human recombinant PI3Kα, ATP 50 μM; read-out: PI3K alpha inhibition.

The target in assay [2] is T2, PI3Kβ (Homo sapiens, UniProt P42338).
T2 construct: purchased Millipore Ltd (Billerica, Mass.)
T2 sequence (P42338 whole entry): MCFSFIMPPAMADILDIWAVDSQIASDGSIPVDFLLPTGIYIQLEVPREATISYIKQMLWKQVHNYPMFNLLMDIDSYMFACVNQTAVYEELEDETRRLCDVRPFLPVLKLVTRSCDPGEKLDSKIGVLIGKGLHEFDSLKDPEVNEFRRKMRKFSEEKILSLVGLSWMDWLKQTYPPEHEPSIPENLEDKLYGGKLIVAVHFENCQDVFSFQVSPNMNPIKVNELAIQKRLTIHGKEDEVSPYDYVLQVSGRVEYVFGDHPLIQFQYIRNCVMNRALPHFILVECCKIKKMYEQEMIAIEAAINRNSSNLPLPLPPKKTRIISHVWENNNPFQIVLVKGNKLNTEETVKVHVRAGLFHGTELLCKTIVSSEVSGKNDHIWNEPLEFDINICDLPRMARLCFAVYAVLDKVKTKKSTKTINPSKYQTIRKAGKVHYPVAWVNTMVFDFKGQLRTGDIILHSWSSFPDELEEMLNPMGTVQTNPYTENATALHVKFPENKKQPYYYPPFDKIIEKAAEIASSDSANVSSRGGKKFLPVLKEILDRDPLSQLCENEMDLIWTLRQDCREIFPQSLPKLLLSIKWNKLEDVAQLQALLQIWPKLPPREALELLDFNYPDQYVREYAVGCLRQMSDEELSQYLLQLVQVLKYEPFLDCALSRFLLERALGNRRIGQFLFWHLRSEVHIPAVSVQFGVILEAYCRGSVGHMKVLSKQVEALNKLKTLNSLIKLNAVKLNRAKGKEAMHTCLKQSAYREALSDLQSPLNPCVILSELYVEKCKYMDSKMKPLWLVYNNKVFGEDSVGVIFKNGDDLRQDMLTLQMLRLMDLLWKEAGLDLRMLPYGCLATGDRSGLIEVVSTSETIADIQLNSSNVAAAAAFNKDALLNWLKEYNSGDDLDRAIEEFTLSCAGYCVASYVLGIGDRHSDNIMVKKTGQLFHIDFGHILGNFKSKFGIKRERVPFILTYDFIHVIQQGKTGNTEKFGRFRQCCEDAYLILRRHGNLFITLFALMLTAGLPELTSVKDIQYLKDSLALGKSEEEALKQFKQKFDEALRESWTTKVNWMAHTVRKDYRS
The note with it: human recombinant PI3Kβ, ATP 100 μM; read-out: PI3K beta inhibition.

The target in assay [3] is T3, PI3Kδ (Homo sapiens, UniProt O00329).
T3 construct: purchased Millipore Ltd (Billerica, Mass.)
T3 sequence (O00329 1-1044): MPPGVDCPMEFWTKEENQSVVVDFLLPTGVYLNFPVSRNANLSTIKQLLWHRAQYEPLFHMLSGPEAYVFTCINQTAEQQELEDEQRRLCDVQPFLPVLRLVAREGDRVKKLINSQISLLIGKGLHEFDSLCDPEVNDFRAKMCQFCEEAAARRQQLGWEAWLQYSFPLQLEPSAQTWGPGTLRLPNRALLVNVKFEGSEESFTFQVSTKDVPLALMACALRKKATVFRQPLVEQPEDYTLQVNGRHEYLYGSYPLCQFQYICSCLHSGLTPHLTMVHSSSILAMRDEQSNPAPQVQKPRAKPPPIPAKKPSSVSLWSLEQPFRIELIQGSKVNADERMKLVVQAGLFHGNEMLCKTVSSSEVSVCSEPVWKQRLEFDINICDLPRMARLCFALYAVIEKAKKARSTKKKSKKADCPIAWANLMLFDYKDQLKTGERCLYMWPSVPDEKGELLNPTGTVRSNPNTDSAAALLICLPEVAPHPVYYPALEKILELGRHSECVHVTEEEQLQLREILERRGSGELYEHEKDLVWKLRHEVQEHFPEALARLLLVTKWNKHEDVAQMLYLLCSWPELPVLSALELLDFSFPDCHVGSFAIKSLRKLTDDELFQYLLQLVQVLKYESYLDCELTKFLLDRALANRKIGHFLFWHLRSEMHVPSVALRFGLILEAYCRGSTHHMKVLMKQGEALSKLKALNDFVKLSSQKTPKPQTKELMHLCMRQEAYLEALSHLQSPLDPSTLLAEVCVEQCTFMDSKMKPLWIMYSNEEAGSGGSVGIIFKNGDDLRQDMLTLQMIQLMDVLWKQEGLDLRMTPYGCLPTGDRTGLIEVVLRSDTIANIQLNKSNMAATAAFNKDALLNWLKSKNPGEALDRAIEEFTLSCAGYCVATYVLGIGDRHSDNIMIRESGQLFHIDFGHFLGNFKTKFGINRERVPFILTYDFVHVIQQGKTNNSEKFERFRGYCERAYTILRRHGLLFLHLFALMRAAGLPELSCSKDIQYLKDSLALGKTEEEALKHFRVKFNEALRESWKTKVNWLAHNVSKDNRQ
Conditions: human recombinant PI3Kδ, ATP 80 μM; read-out: PI3K delta inhibition.

The target in assay [4] is T4, PI3Kγ (Homo sapiens, UniProt P48736).
T4 construct: purchased Millipore Ltd (Billerica, Mass.)
T4 sequence (P48736 whole entry): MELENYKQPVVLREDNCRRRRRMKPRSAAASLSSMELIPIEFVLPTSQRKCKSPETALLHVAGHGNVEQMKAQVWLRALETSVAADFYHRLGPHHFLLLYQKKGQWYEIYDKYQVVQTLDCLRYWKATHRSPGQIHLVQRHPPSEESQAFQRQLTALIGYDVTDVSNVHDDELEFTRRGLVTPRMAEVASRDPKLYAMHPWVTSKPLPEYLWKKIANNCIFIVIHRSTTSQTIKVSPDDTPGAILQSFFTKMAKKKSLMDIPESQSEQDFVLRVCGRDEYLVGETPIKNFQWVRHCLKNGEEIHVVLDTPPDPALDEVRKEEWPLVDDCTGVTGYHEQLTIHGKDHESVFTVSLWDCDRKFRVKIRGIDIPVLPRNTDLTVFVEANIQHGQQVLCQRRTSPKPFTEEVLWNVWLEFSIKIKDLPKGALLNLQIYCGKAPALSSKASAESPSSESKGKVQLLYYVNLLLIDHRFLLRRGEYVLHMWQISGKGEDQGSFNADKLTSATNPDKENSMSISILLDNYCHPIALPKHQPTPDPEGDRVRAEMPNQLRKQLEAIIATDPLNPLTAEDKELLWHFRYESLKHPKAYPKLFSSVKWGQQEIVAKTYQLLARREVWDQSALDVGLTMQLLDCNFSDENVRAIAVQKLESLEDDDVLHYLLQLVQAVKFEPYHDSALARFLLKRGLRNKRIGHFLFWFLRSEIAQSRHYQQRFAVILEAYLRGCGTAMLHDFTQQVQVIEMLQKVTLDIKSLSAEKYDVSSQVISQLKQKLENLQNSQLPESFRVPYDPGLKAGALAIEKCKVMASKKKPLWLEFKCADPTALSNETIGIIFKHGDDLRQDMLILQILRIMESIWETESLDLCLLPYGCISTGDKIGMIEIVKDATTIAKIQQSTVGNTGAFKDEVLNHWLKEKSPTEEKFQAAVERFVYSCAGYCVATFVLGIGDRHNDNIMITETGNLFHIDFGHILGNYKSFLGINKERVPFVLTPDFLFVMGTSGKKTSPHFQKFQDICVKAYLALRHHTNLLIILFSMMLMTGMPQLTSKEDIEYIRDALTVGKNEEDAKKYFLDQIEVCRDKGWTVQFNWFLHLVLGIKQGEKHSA
Conditions: human recombinant PI3Kγ, ATP 30 μM; read-out: PI3K gamma inhibition.

T1 sequence (P42336 whole entry): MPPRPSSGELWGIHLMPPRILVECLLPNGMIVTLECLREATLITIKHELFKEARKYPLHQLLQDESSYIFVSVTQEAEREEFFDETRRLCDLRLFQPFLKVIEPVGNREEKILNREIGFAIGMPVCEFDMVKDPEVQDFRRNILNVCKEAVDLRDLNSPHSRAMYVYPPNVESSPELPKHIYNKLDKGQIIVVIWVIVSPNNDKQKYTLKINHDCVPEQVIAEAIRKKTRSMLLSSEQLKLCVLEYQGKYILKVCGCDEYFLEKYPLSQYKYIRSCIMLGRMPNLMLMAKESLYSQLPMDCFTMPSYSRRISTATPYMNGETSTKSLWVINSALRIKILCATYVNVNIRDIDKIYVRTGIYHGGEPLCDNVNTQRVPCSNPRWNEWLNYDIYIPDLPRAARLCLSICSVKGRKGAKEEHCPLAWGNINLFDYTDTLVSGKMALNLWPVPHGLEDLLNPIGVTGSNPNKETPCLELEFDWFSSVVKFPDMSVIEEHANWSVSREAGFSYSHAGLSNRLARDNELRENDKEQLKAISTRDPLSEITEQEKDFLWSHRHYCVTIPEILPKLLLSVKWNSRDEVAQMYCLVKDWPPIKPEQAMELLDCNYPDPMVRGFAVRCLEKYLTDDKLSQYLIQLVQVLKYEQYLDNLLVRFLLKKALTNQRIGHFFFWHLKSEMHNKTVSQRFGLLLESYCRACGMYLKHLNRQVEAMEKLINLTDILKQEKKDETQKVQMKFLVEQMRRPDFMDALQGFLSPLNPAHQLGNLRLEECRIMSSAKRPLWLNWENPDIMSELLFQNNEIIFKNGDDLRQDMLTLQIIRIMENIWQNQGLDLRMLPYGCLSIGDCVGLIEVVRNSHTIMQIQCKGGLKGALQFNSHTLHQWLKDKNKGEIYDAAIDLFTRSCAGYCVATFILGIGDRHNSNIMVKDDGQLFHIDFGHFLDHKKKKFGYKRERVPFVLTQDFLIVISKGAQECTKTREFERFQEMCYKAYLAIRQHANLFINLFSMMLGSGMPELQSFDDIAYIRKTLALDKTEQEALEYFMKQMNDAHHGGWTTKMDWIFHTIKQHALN

Take `Nc1ncnc2c1c(-c1cncc(O)c1)nn2CC1=C(c2ccccc2)c2ccccc2CO1` [Example 129, 5-(4-amino-1-((4-phenyl-1H-isochromen-3-yl)methyl)-1H-pyrazolo[3,4-d]pyrimidin-3-yl)pyridin-3-ol]: the IC50 is 0.01 to 1 µM in assay [1], 0.01 to 1 µM in assay [2], 0.01 to 1 µM in assay [3] and over 1 µM in assay [4].
As for `CC(c1oc(=O)c2ccccc2c1CN1CCOCC1)n1nc(-c2cc(O)cc(F)c2)c2c(N)ncnc21` (stereo not drawn) [Example 130, 3-(1-(4-amino-3-(3-fluoro-5-hydroxyphenyl)-1H-pyrazolo[3,4-d]pyrimidin-1-yl)ethyl)-4-(morpholinomethyl)-1H-isochromen-1-one], the IC50 is 0.01 to 1 µM in assay [1], 0.01 to 1 µM in assay [2], under 0.01 µM in assay [3] and 0.01 to 1 µM in assay [4].
Take `CC(c1oc(=O)c2ccccc2c1-c1ccc(CN2CCN(C)CC2)s1)n1nc(-c2cc(O)cc(F)c2)c2c(N)ncnc21` (stereo not drawn) [Example 135, 3-(1-(4-amino-3-(3-fluoro-5-hydroxyphenyl)-1H-pyrazolo[3,4-d]pyrimidin-1-yl)ethyl)-4-(5-((4-methyl)piperazin-1-yl)methyl)thiophen-2-yl)-1H-isochromen-1-one, dihydrochloride]: the IC50 in assay [1] was 0.01 to 1 µM; in assay [2], 0.01 to 1 µM; in assay [3] it was under 0.01 µM; in assay [4], 0.01 to 1 µM.
Turning to `CC(c1oc(=O)c2ccccc2c1-c1ccc(CCCN(C)C)s1)n1nc(-c2cc(O)cc(F)c2)c2c(N)ncnc21` (stereo not drawn) [Example 136, 3-(1-(4-amino-3-(3-fluoro-5-hydroxyphenyl)-1H-pyrazolo[3,4-d]pyrimidin-1-yl)ethyl)-4-(5-(3-(dimethylamino)propyl)thiophen-2-yl)-1H-isochromen-1-one, Formate], the IC50 in assay [1] is over 1 µM; in assay [2], 0.01 to 1 µM; in assay [3], under 0.01 µM; in assay [4], over 1 µM.
In the case of `CC(c1oc(=O)c2ccccc2c1-c1cccc(CCCN(C)C)c1)n1nc(-c2cc(O)cc(F)c2)c2c(N)ncnc21` (stereo not drawn) [Example 137, 3-(1-(4-amino-3-(3-fluoro-5-hydroxyphenyl)-1H-pyrazolo[3,4-d]pyrimidin-1-yl)ethyl)-4-(3-(3-(dimethylamino)propyl)phenyl)-1H-isochromen-1-one, Formic Acid], the IC50 in assay [1] was over 1 µM; in assay [2], 0.01 to 1 µM; in assay [3] it was under 0.01 µM; in assay [4], 0.01 to 1 µM.
As for `CC(c1oc(=O)c2ccccc2c1-c1ccc(CN2CCN(C)CC2)cc1)n1nc(-c2cc(O)cc(F)c2)c2c(N)ncnc21` (stereo not drawn) [Example 139, 3-(1-(4-amino-3-(3-fluoro-5-hydroxyphenyl)-1H-pyrazolo[3,4-d]pyrimidin-1-yl)ethyl)-4-(4-((4-methylpiperazin-1-yl)methyl)phenyl)-1H-isochromen-1-one, dihydrochloride], the IC50 was over 1 µM in assay [1], over 1 µM in assay [2], under 0.01 µM in assay [3] and over 1 µM in assay [4].
As for `CC(c1oc(=O)c2ccccc2c1-c1ccc(CN2CCCC2)cc1)n1nc(-c2cc(O)cc(F)c2)c2c(N)ncnc21` (stereo not drawn) [Example 140, 3-(1-(4-amino-3-(3-fluoro-5-hydroxyphenyl)-1H-pyrazolo[3,4-d]pyrimidin-1-yl)ethyl)-4-(4-(pyrrolidin-1-ylmethyl)phenyl)-1H-isochromen-1-one, hydrochloride], the IC50 was over 1 µM in assay [1], 0.01 to 1 µM in assay [2], under 0.01 µM in assay [3] and over 1 µM in assay [4].
In the case of `CC(c1oc(=O)c2ccccc2c1-c1ccc(CN2CCCCC2)cc1)n1nc(-c2cc(O)cc(F)c2)c2c(N)ncnc21` (stereo not drawn) [Example 141, 3-(1-(4-amino-3-(3-fluoro-5-hydroxyphenyl)-1H-pyrazolo[3,4-d]pyrimidin-1-yl)ethyl)-4-(4-(piperidin-1-ylmethyl)phenyl)-1H-isochromen-1-one, hydrochloride], the IC50 in assay [1] was over 1 µM; in assay [2], 0.01 to 1 µM; in assay [3] it was under 0.01 µM; in assay [4] it was over 1 µM.
Take `CC(c1oc(=O)c2ccccc2c1-c1cccc(CN2CCN(C)CC2)c1)n1nc(-c2cc(O)cc(F)c2)c2c(N)ncnc21` (stereo not drawn) [Example 142, 3-(1-(4-amino-3-(3-fluoro-5-hydroxyphenyl)-1H-pyrazolo[3,4-d]pyrimidin-1-yl)ethyl)-4-(3-((4-methylpiperazin-1-yl)methyl)phenyl)-1H-isochromen-1-one]: the IC50 is over 1 µM in assay [1], over 1 µM in assay [2], under 0.01 µM in assay [3] and over 1 µM in assay [4].
Take `CC(c1oc(=O)c2ccccc2c1C1=CC(C)(C)NC(C)(C)C1)n1nc(-c2cc(O)cc(F)c2)c2c(N)ncnc21` (stereo not drawn) [Example 144, 3-(1-(4-amino-3-(3-fluoro-5-hydroxyphenyl)-1H-pyrazolo[3,4-d]pyrimidin-1-yl)ethyl)-4-(2,2,6,6-tetramethyl-1,2,3,6-tetrahydropyridin-4-yl)-1H-isochromen-1-one hydrochloride]: the IC50 in assay [1] is over 1 µM; in assay [2], 0.01 to 1 µM; in assay [3], under 0.01 µM; in assay [4], 0.01 to 1 µM.
Regarding `CC(c1oc(=O)c2ccccc2c1C1=CC(C)(C)NC(C)(C)C1)n1nc(-c2cncc(O)c2)c2c(N)ncnc21` (stereo not drawn) [Example 145, 3-(1-(4-amino-3-(5-hydroxypyridin-3-yl)-1H-pyrazolo[3,4-d]pyrimidin-1-yl)ethyl)-4-(2,2,6,6-tetramethyl-1,2,3,6-tetrahydropyridin-4-yl)-1H-isochromen-1-one dihydrochloride], the IC50 in assay [1] is 0.01 to 1 µM; in assay [2] it was 0.01 to 1 µM; in assay [3], under 0.01 µM; in assay [4], 0.01 to 1 µM.
As for `CC(c1oc(=O)c2ccccc2c1C1=CCN(C(=O)CCCN(C)C)CC1)n1nc(-c2cc(O)cc(F)c2)c2c(N)ncnc21` (stereo not drawn) [Example 146, 3-(1-(4-amino-3-(3-fluoro-5-hydroxyphenyl)-1H-pyrazolo[3,4-d]pyrimidin-1-yl)ethyl)-4-(1-(4-(dimethylamino)butanoyl)-1,2,3,6-tetrahydropyridin-4-yl)-1H-isochromen-1-one formate], the IC50 in assay [1] is over 1 µM; in assay [2] it was 0.01 to 1 µM; in assay [3], under 0.01 µM; in assay [4] it was 0.01 to 1 µM.
As to `CC(c1oc(=O)c2ccccc2c1C1=CCN(C(=O)CN(C)C)CC1)n1nc(-c2cc(O)cc(F)c2)c2c(N)ncnc21` (stereo not drawn) [Example 147, 3-(1-(4-amino-3-(3-fluoro-5-hydroxyphenyl)-1H-pyrazolo[3,4-d]pyrimidin-1-yl)ethyl)-4-(1-(2-(dimethylamino)acetyl)-1,2,3,6-tetrahydropyridin-4-yl)-1H-isochromen-1-one formate], the IC50 is 0.01 to 1 µM in assay [1], 0.01 to 1 µM in assay [2], under 0.01 µM in assay [3] and 0.01 to 1 µM in assay [4].
In the case of `CC(c1oc(=O)c2ccccc2c1C1=CCN(C(=O)C2CCN(C)CC2)CC1)n1nc(-c2cc(O)cc(F)c2)c2c(N)ncnc21` (stereo not drawn) [Example 148, 3-(1-(4-amino-3-(3-fluoro-5-hydroxyphenyl)-1H-pyrazolo[3,4-d]pyrimidin-1-yl)ethyl)-4-(1-(1-methylpiperidine-4-carbonyl)-1,2,3,6-tetrahydropyridin-4-yl)-1H-isochromen-1-one formate], the IC50 in assay [1] was over 1 µM; in assay [2] it was 0.01 to 1 µM; in assay [3] it was under 0.01 µM; in assay [4], 0.01 to 1 µM.
Regarding `CC(c1oc(=O)c2ccccc2c1C1=CCN(C(=O)C2CN(C)C2)CC1)n1nc(-c2cc(O)cc(F)c2)c2c(N)ncnc21` (stereo not drawn) [Example 151, 3-(1-(4-amino-3-(3-fluoro-5-hydroxyphenyl)-1H-pyrazolo[3,4-d]pyrimidin-1-yl)ethyl)-4-(1-(1-methylazetidine-3-carbonyl)-1,2,3,6-tetrahydropyridin-4-yl)-1H-isochromen-1-one formate], the IC50 in assay [1] is over 1 µM; in assay [2] it was 0.01 to 1 µM; in assay [3] it was 0.01 to 1 µM; in assay [4], 0.01 to 1 µM.
